Laboratory results reported in ChEMBL document CHEMBL4619748, “Enhancing the activity of membrane remodeling epsin-peptide by trimerization” (Bioorg Med Chem Lett, 2020).
Active and inactive are the calls of the source. No cut-off for these calls is given here. Starred links: 1 amine or outer side, 2 acyl side, 3 side chain; linkers in the order of their positions; H or OH if unused. Positions of bridges follow the written chain, without caps; N, C: chain ends. Non-standard residues stand in square brackets, D forms with d. Chains are numbered I, II in the order given. εLys = N[C@@H](CCCCN[*:1])C(=O)[*:2]; Nle = CCCC[C@H](N)C(=O)O

Columns and labels:
HeLa [1] = experiment: Induction of membrane-remodelling in human HeLa cells assessed as increase in cell internalization of FITC-R8 peptide at 0.5 uM incubated for 30 mins by PI staining based assay relative to control; format: cell membranes
HeLa [2] = experiment: Induction of membrane-remodelling in human HeLa cells assessed as increase in cell internalization of FITC-R8 peptide at 1 uM incubated for 30 mins by PI staining based assay; format: cell membranes
HeLa [3] = experiment: Cytotoxicity against human HeLa cells assessed as proportion of cells with ruptured cell membrane at 1 uM incubated for 30 mins in presence of 10 uM FITC-R8 peptide by propidium iodide staining based assay; conditions: 0.5 h
Lipid bilayer [4] = experiment: Binding affinity to POPC/POPS (3:1) LUVs assessed as stabilization of drug peptide's alpha helical signature with CD minima at around 208 and 222 nm and a positive ellipticity below 200 nm at 6.7 uM by CD spectroscopy
HeLa [5] = experiment: Induction of membrane-remodelling in human HeLa cells assessed as loosening of the lipid package by measuring decrease in generalized polarization of cell membrane at 0.5 uM incubated for 10 mins by di-4-ANEPPDHQ polarity-sensitive fluorescent membrane probe based confocal microscopic method; format: cell membranes
[6] = Cytotoxicity against human HeLa cells assessed as cell viability at <=1 uM by WST8 assay; format: cell-based; conditions: read-out: Activity
HeLa [7] = experiment: Induction of membrane-remodelling in human HeLa cells assessed as increase in cell internalization of FITC-R8 peptide at 0.25 uM incubated for 30 mins by PI staining based assay; format: cell membranes
Lipid bilayer [8] = experiment: Induction of membrane-remodelling in DOPE bilayer assessed as phase transition temperature required for conversion of lamellar L-alpha phase to inverted hexagonal HII phase at peptide to lipid molar ratio of 1:100 by solid-state 31P NMR analysis (reference value: 25 degC)

- Activity (HeLa [1]): 60%
- Activity (HeLa [2]): inactive
- Activity (Lipid bilayer [4]): Active
- Activity (HeLa [5]): Active
- Activity (HeLa [7]): Active
- T (Lipid bilayer [8]): 46 °C
Substance: I: H-[Nle]SSLRRQ[Nle]KNIVHNYS[εLys]GKGKG-OH / II: H-[Nle]SSLRRQ[Nle]KNIVHNYS / III: H-[Nle]SSLRRQ[Nle]KNIVHNYS (amide I:19-III:C, I:21-II:C)
- Activity (HeLa [3]): > 10%
- viability [6]: > 90%
